Measured values as given in patent US7850970B2, “Inhibitors of serine protease activity and their use in methods and compositions for treatment of bacterial infections” (priority 2003, dated 2010).
“And” between values parts separate entries of the source, which are not always exact repeats. Identical values can stand only once. Residues, ends and D or L forms follow the SMILES beside them. *: point of attachment. CH2Cl = ClC*

Key:
[1] = test system: MAC (strain Mycobacterium avium 9141); assay: MAC infection of human monocyte-derived macrophages, colony counts; assay type: cell-based; conditions: FIG. 1
[2] = test system: MAC (strain Mycobacterium avium 9141); assay: MAC infection of human monocyte-derived macrophages, direct observation and counting of infected cells; assay type: cell-based; conditions: AAT 5.0 mg/ml-exposed MDM, control MDM (no AAT) 17%
interleukin-1 beta = assay: Stimulated interleukin-1 beta production in whole human blood; assay type: cell-based; conditions: whole human blood diluted 1:4, heat-killed Staphylococcus epidermidis 1:1000, 24 hrs, all concentrations tested, FIG. 5
Protocol: Design: Venipuncture was performed on 3 healthy volunteers using a 21-gauge needle, and the venous blood was aspirated into a heparinized tube. Blood was then aliquoted into 6 milliliter polypropylene tubes and diluted 1:4 with sterile RPMI tissue culture medium alone (Control), diluted 1:4 in medium containing heat-killed Staphylococcus epidermidis at a final concentration of 1:1000 as a stimulus (Staph), or into tubes containing Staphylococcus epidermidis and alpha-1-antitrypsin (AAT, Aralast® from Baxter). All cultures were then incubated ×24 hrs at 37° C./5% CO2). Following incubation, the samples were centrifuged ×1,500 g, and the supernatants collected. Supernatants were assayed for interleukin-1 beta concentration using a validated electrochemiluminescence apparatus that quantifies cytokine proteins.

TB (strain H37RV) [3] = assay type: cell-based, m. tuberculosis; conditions: AAT 5.0 mg/ml-exposed MDM; control MDM (no AAT) 20% and 17%
TB (strain H37RV) [4] = assay type: cell-based, m. tuberculosis

Compound	effect on MAC infection of MDM [1]	inhibition of infection of MDM with MAC (mean effect) ([1]; 4 separate experiments)	percent of cells infected [2] [%]	Staph-stimulated interleukin-1 beta production (interleukin-1 beta)	percent of cells infected with m. tuberculosis (TB (strain H37RV) [3])	TB counts per ml (TB (strain H37RV) [4]; AAT-exposed MDM cultures, control MDM cultures 1.6×10^5 per ml)	inhibitory effect on cell-associated TB counts (TB (strain H37RV) [4]; AAT-exposed versus control MDM cultures) [%]
CC(C)[C@H](NC(=O)[C@@H]1CCCN1C(=O)[C@H](C)NC(=O)[C@H](C)N)C(=O)CCl [AAT mimic, ala-ala-pro-val-chloromethyl ketone, reference compound] (H-AAPV-CH2Cl)	confirm the AAT data						
α1-antitrypsin [AAT]		approximately 55%	10	significantly inhibited	4% and 6%	0.57×10^5 per ml	64
